# Measured values taken from patent publication US10770169B2, “Method of providing a treatment to a subject based on a dynamic pathway map” (THE REGENTS OF THE UNIVERSITY OF CALIFORNIA, priority 2010, dated 2020).
# Read-outs that look alike come from different tables or passages of the source.
# Tested on: panel of 55 breast cancer cell lines
# Test: Cell growth inhibition assay (Cell Titer Glo, 72 h, 9 doses; GI50, TGI, LC50)
# Format: cell-based, human
compound,measurement,setting,value
COc1ncc(-c2ccc3nccc(-c4ccnnc4)c3c2)cc1NS(=O)(=O)c1ccc(F)cc1F [GSK2126458A],GI50,"cell line 600MPE, censored GI50 values, value is the negative log10 of mol/L",8.22
same,GI50,"cell line 600MPE, value is the negative log10 of mol/L",8.22
same,GI50,"cell line AU565, censored GI50 values, value is the negative log10 of mol/L",8.10
same,GI50,"cell line AU565, value is the negative log10 of mol/L",8.10
same,GI50,"cell line BT20, censored GI50 values, value is the negative log10 of mol/L",7.80
same,GI50,"cell line BT20, value is the negative log10 of mol/L",7.80
same,GI50,"cell line BT474, censored GI50 values, value is the negative log10 of mol/L",8.36
same,GI50,"cell line BT483, censored GI50 values, value is the negative log10 of mol/L",8.94
same,GI50,"cell line BT549, censored GI50 values, value is the negative log10 of mol/L",7.32
same,GI50,"cell line CAMA1, censored GI50 values, value is the negative log10 of mol/L",6.97
same,GI50,"cell line HCC38, censored GI50 values, value is the negative log10 of mol/L",7.62
same,GI50,"cell line HCC70, censored GI50 values, value is the negative log10 of mol/L",8.13
same,GI50,"cell line HCC202, censored GI50 values, value is the negative log10 of mol/L",9.03
same,GI50,"cell line HCC1143, censored GI50 values, value is the negative log10 of mol/L",7.43
same,GI50,"cell line HCC1187, censored GI50 values, value is the negative log10 of mol/L",8.30
same,GI50,"cell line HCC1395, censored GI50 values, value is the negative log10 of mol/L",7.31
same,GI50,"cell line HCC1419, censored GI50 values, value is the negative log10 of mol/L",8.75
same,GI50,"cell line HCC1428, censored GI50 values, value is the negative log10 of mol/L",7.48
same,GI50,"cell line HCC1500, censored GI50 values, value is the negative log10 of mol/L",7.11
same,GI50,"cell line HCC1806, censored GI50 values, value is the negative log10 of mol/L",7.54
same,GI50,"cell line HCC1937, censored GI50 values, value is the negative log10 of mol/L",7.57
same,GI50,"cell line HCC1954, censored GI50 values, value is the negative log10 of mol/L",7.97
same,GI50,"cell line HCC3153, censored GI50 values, value is the negative log10 of mol/L",7.36
same,GI50,"cell line LY2, censored GI50 values, value is the negative log10 of mol/L",7.93
same,GI50,"cell line MCF7, censored GI50 values, value is the negative log10 of mol/L",8.14
same,GI50,"cell line MDAMB134VI, censored GI50 values, value is the negative log10 of mol/L",7.95
same,GI50,"cell line MDAMB157, censored GI50 values, value is the negative log10 of mol/L",6.49
same,GI50,"cell line MDAMB175VII, censored GI50 values, value is the negative log10 of mol/L",8.29
same,GI50,"cell line MDAMB231, censored GI50 values, value is the negative log10 of mol/L",5.57
same,GI50,"cell line MDAMB361, censored GI50 values, value is the negative log10 of mol/L",7.46
same,GI50,"cell line MDAMB436, censored GI50 values, value is the negative log10 of mol/L",6.75
same,GI50,"cell line MDAMB453, censored GI50 values, value is the negative log10 of mol/L",8.28
same,GI50,"cell line MDAMB468, censored GI50 values, value is the negative log10 of mol/L",7.47
same,GI50,"cell line SKBR3, censored GI50 values, value is the negative log10 of mol/L",8.41
same,GI50,"cell line SUM52PE, censored GI50 values, value is the negative log10 of mol/L",8.46
same,GI50,"cell line SUM149PT, censored GI50 values, value is the negative log10 of mol/L",7.64
same,GI50,"cell line SUM159PT, censored GI50 values, value is the negative log10 of mol/L",7.52
same,GI50,"cell line SUM1315MO2, censored GI50 values, value is the negative log10 of mol/L",8.02
same,GI50,"cell line T47D, censored GI50 values, value is the negative log10 of mol/L",8.45
same,GI50,"cell line UACC812, censored GI50 values, value is the negative log10 of mol/L",8.67
same,GI50,"cell line UACC893, censored GI50 values, value is the negative log10 of mol/L",8.22
same,GI50,"cell line ZR75B, censored GI50 values, value is the negative log10 of mol/L",8.31
same,GI50,"cell line ZR751, censored GI50 values, value is the negative log10 of mol/L",8.07
CC(=O)O[C@H]1C(=O)[C@@]2(C)[C@H]([C@H](OC(=O)c3ccccc3)[C@]3(O)C[C@H](OC(=O)[C@H](O)[C@@H](NC(=O)c4ccccc4)c4ccccc4)C(C)=C1C3(C)C)[C@]1(OC(C)=O)CO[C@@H]1C[C@@H]2O [Paclitaxel],GI50,"Homo sapiens, 600MPE cell line, censored GI50 values, read-out: GI50 (converted)",66.1 nM
same,GI50,"Homo sapiens, AU565, AU565 cell line, censored GI50 values, read-out: GI50 (converted)",8.13 nM
same,GI50,"Homo sapiens, AU565, cell line AU565, read-out: GI50 (converted)",8.13 nM
same,GI50,"Homo sapiens, BT-474, BT474 cell line, censored GI50 values, read-out: GI50 (converted)",10.2 nM
same,GI50,"Homo sapiens, BT-474, cell line BT474, read-out: GI50 (converted)",10.2 nM
same,GI50,"Homo sapiens, BT-483, BT483 cell line, censored GI50 values, read-out: GI50 (converted)",34.7 nM
same,GI50,"Homo sapiens, BT-483, cell line BT483, read-out: GI50 (converted)",34.7 nM
same,GI50,"Homo sapiens, CAMA-1, CAMA1 cell line, censored GI50 values, read-out: GI50 (converted)",11.2 nM
same,GI50,"Homo sapiens, CAMA-1, cell line CAMA1, read-out: GI50 (converted)",11.2 nM
same,GI50,"Homo sapiens, HCC38, cell line HCC38, read-out: GI50 (converted)",7.41 nM
same,GI50,"Homo sapiens, HCC70, cell line HCC70, read-out: GI50 (converted)",8.13 nM
same,GI50,"Homo sapiens, HCC202, cell line HCC202, read-out: GI50 (converted)",7.94 nM
same,GI50,"Homo sapiens, HCC1143, HCC1143 cell line, censored GI50 values, read-out: GI50 (converted)",17 nM
same,GI50,"Homo sapiens, HCC1143, cell line HCC1143, read-out: GI50 (converted)",17 nM
same,GI50,"Homo sapiens, HCC1187, HCC1187 cell line, censored GI50 values, read-out: GI50 (converted)",8.91 nM
same,GI50,"Homo sapiens, HCC1187, cell line HCC1187, read-out: GI50 (converted)",8.91 nM
same,GI50,"Homo sapiens, HCC1395, HCC1395 cell line, censored GI50 values, read-out: GI50 (converted)",15.8 nM
same,GI50,"Homo sapiens, HCC1395, cell line HCC1395, read-out: GI50 (converted)",15.8 nM
same,GI50,"Homo sapiens, HCC1419, HCC1419 cell line, censored GI50 values, read-out: GI50 (converted)",692 nM
same,GI50,"Homo sapiens, HCC1419, cell line HCC1419, read-out: GI50 (converted)",692 nM
same,GI50,"Homo sapiens, HCC1428, HCC1428 cell line, censored GI50 values, read-out: GI50 (converted)",16600 nM
same,GI50,"Homo sapiens, HCC1428, cell line HCC1428, read-out: GI50 (converted)",16600 nM
same,GI50,"Homo sapiens, HCC1500, HCC1500 cell line, censored GI50 values, read-out: GI50 (converted)",7.94 nM
same,GI50,"Homo sapiens, HCC1500, cell line HCC1500, read-out: GI50 (converted)",7.94 nM
same,GI50,"Homo sapiens, HCC1806, HCC1806 cell line, censored GI50 values, read-out: GI50 (converted)",8.71 nM
same,GI50,"Homo sapiens, HCC1806, cell line HCC1806, read-out: GI50 (converted)",8.71 nM
same,GI50,"Homo sapiens, HCC1954, HCC1954 cell line, censored GI50 values, read-out: GI50 (converted)",7.08 nM
same,GI50,"Homo sapiens, HCC1954, cell line HCC1954, read-out: GI50 (converted)",7.08 nM
same,GI50,"Homo sapiens, MCF7, cell line MCF7, read-out: GI50 (converted)",16.2 nM
same,GI50,"Homo sapiens, MDA-MB-231, cell line MDAMB231, read-out: GI50 (converted)",5.25 nM
same,GI50,"Homo sapiens, MDA-MB-361, cell line MDAMB361, read-out: GI50 (converted)",13.2 nM
same,GI50,"Homo sapiens, MDA-MB-415, cell line MDAMB415, read-out: GI50 (converted)",5.25 nM
same,GI50,"Homo sapiens, MDA-MB-436, cell line MDAMB436, read-out: GI50 (converted)",42.7 nM
same,GI50,"Homo sapiens, MDA-MB-453, cell line MDAMB453, read-out: GI50 (converted)",10.2 nM
same,GI50,"Homo sapiens, MDA-MB-468, cell line MDAMB468, read-out: GI50 (converted)",8.71 nM
same,GI50,"Homo sapiens, SK-BR-3, cell line SKBR3, read-out: GI50 (converted)",11.2 nM
same,GI50,"Homo sapiens, SUM52PE, cell line SUM52PE, read-out: GI50 (converted)",4.9 nM
same,GI50,"Homo sapiens, SUM149PT, cell line SUM149PT, read-out: GI50 (converted)",9.33 nM
same,GI50,"Homo sapiens, SUM185PE, cell line SUM185PE, read-out: GI50 (converted)",24 nM
same,GI50,"Homo sapiens, SUM-159-PT, cell line SUM159PT, read-out: GI50 (converted)",15.1 nM
same,GI50,"Homo sapiens, UACC-812, cell line UACC812, read-out: GI50 (converted)",9.12 nM
same,GI50,"Homo sapiens, UACC-893, cell line UACC893, read-out: GI50 (converted)",11.7 nM
same,GI50,"Homo sapiens, ZR-75-1, cell line ZR751, read-out: GI50 (converted)",27.5 nM
same,GI50,"Homo sapiens, ZR-75-30, cell line ZR7530, read-out: GI50 (converted)",21.9 nM
same,GI50,"Homo sapiens, ZR-75B, cell line ZR75B, read-out: GI50 (converted)",7.94 nM
same,GI50,"Homo sapiens, cell line 600MPE, read-out: GI50 (converted)",66.1 nM
same,GI50,"Homo sapiens, cell line HCC2185, read-out: GI50 (converted)",7.24 nM
same,GI50,"Homo sapiens, cell line HCC3153, read-out: GI50 (converted)",20 nM
same,GI50,"Homo sapiens, cell line LY2, read-out: GI50 (converted)",10.5 nM
same,GI50,"Homo sapiens, cell line MDAMB134V, read-out: GI50 (converted)",10 nM
same,GI50,"Homo sapiens, cell line MDAMB175V, read-out: GI50 (converted)",19.5 nM
same,GI50,"Homo sapiens, cell line SUM1315MO, read-out: GI50 (converted)",6.17 nM
